Test results as given in patent US20240158446A1, “CYCLIC COMPOUND HAVING SELECTIVE INHIBITORY ACTION ON KRAS OVER HRAS AND NRAS” (CHUGAI SEIYAKU KABUSHIKI KAISHA, priority 2021, published 2024).
pKd: −log10 of the molar value.

Assays:
[1] = target: GDP-bound HRAS wild-type protein (Homo sapiens, UniProt P01112); test: Binding to HRAS by surface plasmon resonance (SPR), Single Cycle Kinetics; conditions: SPR, GDP-bound HRAS wild-type protein vs GDP-bound KRAS wild-type protein
[2] = target: GDP-bound KRAS wild-type protein (Homo sapiens, UniProt P01116); test: Binding to KRAS by surface plasmon resonance (SPR), Single Cycle Kinetics; conditions: SPR Single Cycle Kinetics, GDP-bound KRAS wild-type protein, 1:1 binding model; read-out: KRAS KD
Sequence of GDP-bound KRAS wild-type protein (P01116 whole entry): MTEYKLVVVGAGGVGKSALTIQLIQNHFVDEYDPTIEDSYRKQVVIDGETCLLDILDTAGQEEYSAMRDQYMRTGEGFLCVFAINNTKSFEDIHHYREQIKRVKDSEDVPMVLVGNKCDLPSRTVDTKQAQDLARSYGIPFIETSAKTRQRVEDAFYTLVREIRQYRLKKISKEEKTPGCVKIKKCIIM

[3] = target: GDP-bound NRAS wild-type protein (Homo sapiens, UniProt P01111); test: Binding to NRAS by surface plasmon resonance (SPR), Single Cycle Kinetics; conditions: SPR, GDP-bound NRAS wild-type protein vs GDP-bound KRAS wild-type protein
Sequence of GDP-bound NRAS wild-type protein (P01111 whole entry): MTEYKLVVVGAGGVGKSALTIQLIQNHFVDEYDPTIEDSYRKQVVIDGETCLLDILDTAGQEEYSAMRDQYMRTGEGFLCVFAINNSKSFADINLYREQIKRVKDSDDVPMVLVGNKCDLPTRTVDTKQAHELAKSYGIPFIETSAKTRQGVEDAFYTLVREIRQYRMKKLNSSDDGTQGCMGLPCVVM

Sequence of GDP-bound HRAS wild-type protein (P01112 whole entry): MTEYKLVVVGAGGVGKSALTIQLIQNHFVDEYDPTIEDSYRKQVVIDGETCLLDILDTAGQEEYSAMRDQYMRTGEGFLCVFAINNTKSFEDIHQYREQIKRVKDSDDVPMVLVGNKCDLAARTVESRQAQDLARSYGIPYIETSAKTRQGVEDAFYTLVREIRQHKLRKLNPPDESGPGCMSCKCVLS

Row | pKd [2] | Compound | HRAS/KRAS (ratio of KD value with respect to HRAS to KD value with respect to KRAS) [1] | NRAS/KRAS (ratio of KD value with respect to NRAS to KD value with respect to KRAS) [3]
1 | 10.77 | CCO[C@@H]1C[C@H]2C(=O)NC3(CCCC3)C(=O)N(C)[C@@H](C3CCCC3)C(=O)N(C)[C@H](C(=O)N(C)C)CC(=O)N(C)[C@@H](CC(C)C)C(=O)N[C@@H]([C@@H](C)CC)C(=O)N(C)CC(=O)N(C)[C@H]3CCCCN(C3=O)[C@@H](Cc3ccc(C(F)(F)F)cc3)C(=O)N(C)CC(=O)N[C@@H](CCc3cc(F)c(C(F)(F)F)c(F)c3)C(=O)N2C1 [PP0579] | B (a compound having 3 or more and less than 10 is denoted as B) | C (A compound having a KD ratio of 0.1 or more and less than 3 is denoted as C)
2 | 10.82 | CCO[C@@H]1C[C@H]2C(=O)NC3(CCC3)C(=O)N(C)[C@@H](C3CCCC3)C(=O)N(C)[C@H](C(=O)N(C)C)CC(=O)N(C)[C@@H](CC(C)C)C(=O)N[C@@H]([C@@H](C)CC)C(=O)N(C)CC(=O)N(C)[C@H]3CCCCN(C3=O)[C@@H](Cc3ccc(C(F)(F)F)cc3)C(=O)N(C)CC(=O)N[C@@H](CCc3cc(F)c(C(F)(F)F)c(F)c3)C(=O)N2C1 [PP0580] | C (A compound having a KD ratio of 0.1 or more and less than 3 is denoted as C) | C (A compound having a KD ratio of 0.1 or more and less than 3 is denoted as C)
3 | 10.70 | CC[C@H](C)[C@@H]1NC(=O)[C@H](C)N(C)C(=O)C[C@@H](C(=O)N(C)C)N(C)C(=O)[C@H](C2CCCC2)N(C)C(=O)C2(CCC2)NC(=O)[C@@H]2CCCN2C(=O)[C@H](CCc2cc(F)c(C(F)(F)F)c(F)c2)NC(=O)CN(C)C(=O)[C@H](Cc2ccc(C(F)(F)F)cc2)N2CCCC[C@@H](C2=O)N(C)C(=O)CN(C)C1=O [PP0581] | B (a compound having 3 or more and less than 10 is denoted as B) | C (A compound having a KD ratio of 0.1 or more and less than 3 is denoted as C)
4 | 10.70 | CC[C@H](C)[C@@H]1NC(=O)[C@H](C)N(C)C(=O)C[C@@H](C(=O)N2CCOCC2)N(C)C(=O)[C@H](C2CCCC2)N(C)C(=O)C2(CCC2)NC(=O)[C@@H]2CC(F)(F)CN2C(=O)[C@H](CCc2cc(F)c(C(F)(F)F)c(F)c2)NC(=O)CN(C)C(=O)[C@H](Cc2ccc(C(F)(F)F)cc2)N2CCCC[C@@H](C2=O)N(C)C(=O)CN(C)C1=O [PP0582] | B (a compound having 3 or more and less than 10 is denoted as B) | C (A compound having a KD ratio of 0.1 or more and less than 3 is denoted as C)
5 | 10.72 | CC[C@H](C)[C@@H]1NC(=O)[C@H](C)N(C)C(=O)C[C@@H](C(=O)N(C)C)N(C)C(=O)[C@H](C2CCCC2)N(C)C(=O)C2(CCCC2)NC(=O)[C@@H]2CC(F)(F)CN2C(=O)[C@H](CCc2cc(F)c(C(F)(F)F)c(F)c2)NC(=O)CN(C)C(=O)[C@H](Cc2ccc(C(F)(F)F)cc2)N2CCCC[C@@H](C2=O)N(C)C(=O)CN(C)C1=O [PP0583] | C (A compound having a KD ratio of 0.1 or more and less than 3 is denoted as C) | C (A compound having a KD ratio of 0.1 or more and less than 3 is denoted as C)
6 | 11.11 | CC[C@H](C)[C@@H]1NC(=O)[C@H](C)N(C)C(=O)C[C@@H](C(=O)N(C)C)N(C)C(=O)[C@H](C2CCCC2)N(C)C(=O)C2(CCC2)NC(=O)[C@@H]2CC(F)(F)CN2C(=O)[C@H](CCc2cc(F)c(C(F)(F)F)c(F)c2)NC(=O)CN(C)C(=O)[C@H](Cc2ccc(C(F)(F)F)cc2)N2CCCC[C@@H](C2=O)N(C)C(=O)CN(C)C1=O [PP0584] | C (A compound having a KD ratio of 0.1 or more and less than 3 is denoted as C) | C (A compound having a KD ratio of 0.1 or more and less than 3 is denoted as C)
7 | 10.66 | CCO[C@@H]1C[C@H]2C(=O)NC3(CCC3)C(=O)N(C)[C@@H](C3CCCC3)C(=O)N(C)[C@H](C(=O)N3CCOCC3)CC(=O)N(C)[C@@H](C)C(=O)N[C@@H]([C@@H](C)CC)C(=O)N(C)CC(=O)N(C)[C@H]3CCCCN(C3=O)[C@@H](Cc3ccc(C(F)(F)F)cc3)C(=O)N(C)CC(=O)N[C@@H](CCc3cc(F)c(C(F)(F)F)c(F)c3)C(=O)N2C1 [PP0585] | B (a compound having 3 or more and less than 10 is denoted as B) | B (a compound having 3 or more and less than 10 is denoted as B)
8 | 11.00 | CCO[C@@H]1C[C@H]2C(=O)NC3(CCCC3)C(=O)N(C)[C@@H](C3CCCC3)C(=O)N(C)[C@H](C(=O)N(C)C)CC(=O)N(C)[C@@H](C)C(=O)N[C@@H]([C@@H](C)CC)C(=O)N(C)CC(=O)N(C)[C@H]3CCCCN(C3=O)[C@@H](Cc3ccc(C(F)(F)F)cc3)C(=O)N(C)CC(=O)N[C@@H](CCc3cc(F)c(C(F)(F)F)c(F)c3)C(=O)N2C1 [PP0586] | B (a compound having 3 or more and less than 10 is denoted as B) | C (A compound having a KD ratio of 0.1 or more and less than 3 is denoted as C)
9 | 10.85 | CCO[C@@H]1C[C@H]2C(=O)NC3(CCC3)C(=O)N(C)[C@@H](C3CCCC3)C(=O)N(C)[C@H](C(=O)N(C)C)CC(=O)N(C)[C@@H](C)C(=O)N[C@@H]([C@@H](C)CC)C(=O)N(C)CC(=O)N(C)[C@H]3CCCCN(C3=O)[C@@H](Cc3ccc(C(F)(F)F)cc3)C(=O)N(C)CC(=O)N[C@@H](CCc3cc(F)c(C(F)(F)F)c(F)c3)C(=O)N2C1 [PP0587] | C (A compound having a KD ratio of 0.1 or more and less than 3 is denoted as C) | C (A compound having a KD ratio of 0.1 or more and less than 3 is denoted as C)
10 | 9.96 | CC[C@H](C)[C@@H]1NC(=O)[C@H](CC(C)C)N(CC)C(=O)C[C@@H](C(=O)N2CCOCC2)N(C)C(=O)[C@H](C2CCCC2)N(C)C(=O)C2(CCCC2)NC(=O)[C@@H]2CCCN2C(=O)[C@H](CCc2cc(F)c(C(F)(F)F)c(F)c2)NC(=O)CN(C)C(=O)[C@H](Cc2ccc(C(F)(F)F)cc2)N2CCCC[C@@H](C2=O)N(C)C(=O)CN(C)C1=O [PP0588] | B (a compound having 3 or more and less than 10 is denoted as B) | B (a compound having 3 or more and less than 10 is denoted as B)
11 | 9.44 | CC[C@H](C)[C@@H]1NC(=O)[C@H](CC(C)C)N(C)C(=O)C[C@@H](C(=O)N2CCOCC2)N(C)C(=O)[C@H](C2CCCC2)N(C)C(=O)C2(CCCC2)NC(=O)[C@H](C)N(CC)C(=O)[C@H](CCc2cc(F)c(C(F)(F)F)c(F)c2)NC(=O)CN(C)C(=O)[C@H](Cc2ccc(C(F)(F)F)cc2)N2CCCC[C@@H](C2=O)N(C)C(=O)CN(C)C1=O [PP0589] | B (a compound having 3 or more and less than 10 is denoted as B) | B (a compound having 3 or more and less than 10 is denoted as B)
12 | 9.57 | CC[C@H](C)[C@@H]1NC(=O)[C@H](CC(C)C)NC(=O)C[C@@H](C(=O)N2CCOCC2)N(C)C(=O)[C@H](C2CCCC2)N(C)C(=O)C2(CCCC2)NC(=O)[C@@H]2CCCN2C(=O)[C@H](CCc2cc(F)c(C(F)(F)F)c(F)c2)NC(=O)CN(C)C(=O)[C@H](Cc2ccc(C(F)(F)F)cc2)N2CCCC[C@@H](C2=O)N(C)C(=O)CN(C)C1=O [PP0590] | B (a compound having 3 or more and less than 10 is denoted as B) | C (A compound having a KD ratio of 0.1 or more and less than 3 is denoted as C)
13 | 10.14 | CC[C@H](C)[C@@H]1NC(=O)[C@H](CC(F)(F)F)N(C)C(=O)C[C@@H](C(=O)N2CCOCC2)N(C)C(=O)[C@H](C2CCCC2)N(C)C(=O)C2(CCCC2)NC(=O)[C@@H]2CCCN2C(=O)[C@H](CCc2cc(F)c(C(F)(F)F)c(F)c2)NC(=O)CN(C)C(=O)[C@H](Cc2ccc(C(F)(F)F)cc2)N2CCCC[C@@H](C2=O)N(C)C(=O)CN(C)C1=O [PP0594] | B (a compound having 3 or more and less than 10 is denoted as B) | C (A compound having a KD ratio of 0.1 or more and less than 3 is denoted as C)
14 | 10.00 | CC(C)C[C@H]1C(=O)N[C@@H](C2CCC2)C(=O)N(C)CC(=O)N(C)[C@H]2CCCCN(C2=O)[C@@H](Cc2ccc(C(F)(F)F)cc2)C(=O)N(C)CC(=O)N[C@@H](CCc2cc(F)c(C(F)(F)F)c(F)c2)C(=O)N2CCC[C@H]2C(=O)NC2(CCCC2)C(=O)N(C)[C@@H](C2CCCC2)C(=O)N(C)[C@H](C(=O)N2CCOCC2)CC(=O)N1C [PP0596] | B (a compound having 3 or more and less than 10 is denoted as B) | B (a compound having 3 or more and less than 10 is denoted as B)
15 | 9.48 | CCC(CC)[C@@H]1NC(=O)[C@H](CC(C)C)N(C)C(=O)C[C@@H](C(=O)N2CCOCC2)N(C)C(=O)[C@H](C2CCCC2)N(C)C(=O)C2(CCCC2)NC(=O)[C@@H]2CCCN2C(=O)[C@H](CCc2cc(F)c(C(F)(F)F)c(F)c2)NC(=O)CN(C)C(=O)[C@H](Cc2ccc(C(F)(F)F)cc2)N2CCCC[C@@H](C2=O)N(C)C(=O)CN(C)C1=O [PP0597] | B (a compound having 3 or more and less than 10 is denoted as B) | B (a compound having 3 or more and less than 10 is denoted as B)
